± gives the expanded uncertainty stated by the source.
Assays:
[1] = 101.33 kPa, Liquid
[2] = activity coefficient (dimensionless); of the first substance listed, at infinite dilution; xn = mol fraction of the nth substance listed; settings: Liquid, x1 = 0

Compound | activity coefficient ([2]; 303.15 K, Chromatography) | activity coefficient ([2]; 303.15 K, dilutor) | activity coefficient ([2]; 313.15 K, Chromatography) | activity coefficient ([2]; 313.15 K, dilutor) | activity coefficient ([2]; 323.15 K, Chromatography) | activity coefficient ([2]; 323.15 K, dilutor) | activity coefficient ([2]; 333.15 K, Chromatography) | activity coefficient ([2]; 333.15 K, dilutor) | further results
CCCC[N+]1(C)CCCC1.O=S(=O)([N-]S(=O)(=O)C(F)(F)F)C(F)(F)F | – | – | – | – | – | – | – | – | mass density ([1]; 298.15 K): 1394 ± 5 kg/m3; mass density ([1]; 303.15 K): 1390 ± 5 kg/m3; mass density ([1]; 308.15 K): 1388 ± 5 kg/m3; mass density ([1]; 313.15 K): 1386 ± 5 kg/m3; mass density ([1]; 318.15 K): 1383 ± 5 kg/m3; mass density ([1]; 323.15 K): 1381 ± 5 kg/m3; mass density ([1]; 328.15 K): 1379 ± 5 kg/m3; mass density ([1]; 333.15 K): 1377 ± 5 kg/m3; mass density ([1]; 338.15 K): 1373 ± 5 kg/m3; mass density ([1]; 343.15 K): 1370 ± 5 kg/m3; mass density ([1]; 348.15 K): 1366 ± 5 kg/m3
CCCCCCCCn1cc[n+](C)c1.O=S(=O)([N-]S(=O)(=O)C(F)(F)F)C(F)(F)F | – | – | – | – | – | – | – | – | mass density ([1]; 298.15 K): 1325 ± 5 kg/m3; mass density ([1]; 303.15 K): 1320 ± 5 kg/m3; mass density ([1]; 308.15 K): 1316 ± 5 kg/m3; mass density ([1]; 313.15 K): 1311 ± 5 kg/m3; mass density ([1]; 318.15 K): 1307 ± 5 kg/m3; mass density ([1]; 323.15 K): 1303 ± 5 kg/m3; mass density ([1]; 328.15 K): 1298 ± 5 kg/m3; mass density ([1]; 333.15 K): 1294 ± 5 kg/m3; mass density ([1]; 338.15 K): 1289 ± 5 kg/m3; mass density ([1]; 343.15 K): 1285 ± 5 kg/m3
C1=CCCCC1 [cyclohexene] + CCCCCCCCn1cc[n+](C)c1.O=S(=O)([N-]S(=O)(=O)C(F)(F)F)C(F)(F)F | 2.41 ± 0.11 | 2.44 ± 0.12 | 2.38 ± 0.11 | 2.38 ± 0.12 | 2.31 ± 0.1 | 2.33 ± 0.12 | 2.29 ± 0.1 | 2.28 ± 0.11 | –
C=CCCCC [hex-1-ene] + CCCCCCCCn1cc[n+](C)c1.O=S(=O)([N-]S(=O)(=O)C(F)(F)F)C(F)(F)F | 3.29 ± 0.15 | 3.33 ± 0.17 | 3.27 ± 0.15 | 3.3 ± 0.17 | 3.18 ± 0.14 | 3.27 ± 0.16 | 3.18 ± 0.14 | 3.23 ± 0.16 | –
C1CCCCC1 [cyclohexane] + CCCC[N+]1(C)CCCC1.O=S(=O)([N-]S(=O)(=O)C(F)(F)F)C(F)(F)F | – | 8.75 ± 0.44 | – | 8.43 ± 0.42 | – | 7.91 ± 0.4 | – | 7.42 ± 0.37 | –
c1ccccc1 [benzene] + CCCCCCCCn1cc[n+](C)c1.O=S(=O)([N-]S(=O)(=O)C(F)(F)F)C(F)(F)F | 0.63 ± 0.03 | – | 0.65 ± 0.03 | – | 0.65 ± 0.03 | – | 0.66 ± 0.03 | – | –
CCCCCC [hexane] + CCCC[N+]1(C)CCCC1.O=S(=O)([N-]S(=O)(=O)C(F)(F)F)C(F)(F)F | – | 13.8 ± 0.7 | – | 13.3 ± 0.7 | – | 12.1 ± 0.6 | – | 11 ± 0.6 | –
CC(C)O [propan-2-ol] + CCCC[N+]1(C)CCCC1.O=S(=O)([N-]S(=O)(=O)C(F)(F)F)C(F)(F)F | – | 2.11 ± 0.11 | – | 1.92 ± 0.1 | – | 1.77 ± 0.09 | – | 1.63 ± 0.08 | –
CCO [ethanol] + CCCC[N+]1(C)CCCC1.O=S(=O)([N-]S(=O)(=O)C(F)(F)F)C(F)(F)F | – | 1.84 ± 0.09 | – | 1.73 ± 0.09 | – | 1.63 ± 0.08 | – | 1.5 ± 0.08 | –
CO [methanol] + CCCCCCCCn1cc[n+](C)c1.O=S(=O)([N-]S(=O)(=O)C(F)(F)F)C(F)(F)F | 1.23 ± 0.04 | – | 1.14 ± 0.03 | – | 1.03 ± 0.03 | – | 0.96 ± 0.03 | – | –
C1CCOC1 [tetrahydrofuran] + CCCCCC[n+]1ccn(C)c1.O=S(=O)([N-]S(=O)(=O)C(F)(F)F)C(F)(F)F | 0.49 ± 0.03 | – | 0.51 ± 0.03 | – | 0.53 ± 0.03 | – | 0.55 ± 0.03 | – | –
C1CCCC1 [cyclopentane] + CCCCCCCCn1cc[n+](C)c1.O=S(=O)([N-]S(=O)(=O)C(F)(F)F)C(F)(F)F | – | 2.68 ± 0.13 | – | 2.64 ± 0.13 | – | 2.59 ± 0.13 | – | 2.56 ± 0.13 | –
CCCCCCCC [octane] + CCCCCC[n+]1ccn(C)c1.O=S(=O)([N-]S(=O)(=O)C(F)(F)F)C(F)(F)F | 15.2 ± 0.7 | 14.4 ± 0.7 | 14.3 ± 0.7 | 14.1 ± 0.7 | 13.5 ± 0.6 | 13.1 ± 0.7 | 13 ± 0.6 | 12.8 ± 0.6 | –
CCCCC [pentane] + CCCC[N+]1(C)CCCC1.O=S(=O)([N-]S(=O)(=O)C(F)(F)F)C(F)(F)F | – | 9.22 ± 0.46 | – | 9.18 ± 0.46 | – | 8.62 ± 0.43 | – | 8.29 ± 0.41 | –

— the NIST ThermoML archive (doi:10.1016/j.jct.2005.04.010)
